The text below walks through data of US8030342B2, “Dendritic polyamidoamine phthalocyanine derivative” (Nihon University, priority 2006, dated 2011).

Holding throughout (type): physicochemical
Data set [1] can be described thus: UV-Vis spectra. Further details: λmax: unit not given here. To be noted: for λmax: UV-Vis absorption maxima; for log ε: UV-Vis, at the λmax of the same line.
The nature of data set [2]: fluorescence spectra. As to conditions: fluorescence maximum.
A short description of data set [3]: ESR spectra. From the text:
Also, the data on g value indicate that the dendritic PC generates radicals.

Where “and” joins values, the source holds several entries; their conditions need not be identical. Identical values can stand only once.

For the molecule `c1ccc2c(c1)-c1nc-2nc2[nH]c(nc3nc(nc4[nH]c(n1)c1ccccc41)-c1ccccc1-3)c1ccccc21` [H2—PC], the λmax in data set [1] is 687.50 and 654.00 and 624.50. Besides, the Fmax in data set [2] was 625 and 700. For the same molecule, the g value in data set [3] was 1.9712 and 2.0245.
As to `O=C(O)c1cc2c(cc1C(=O)O)-c1nc-2nc2[n-]c(nc3nc(nc4[n-]c(n1)c1cc(C(=O)O)c(C(=O)O)cc41)-c1cc(C(=O)O)c(C(=O)O)cc1-3)c1cc(C(=O)O)c(C(=O)O)cc21.[Zn+2]` [Zn—PC octacarboxylic acid, Zinc Phthalocyanine (PC) Octacarboxylic Acid], in data set [1], the λmax was 769.00 and 747.00; the “log ε” value was 4.2560 and 4.2054. For the same molecule, the Fmax in data set [2] is recorded as 780. The g value in data set [3] is 1.9713 and 2.0245.
For `c1ccc2c(c1)C1=NC2=Nc2c3ccccc3c3[n]2[Zn][n]2c(c4ccccc4c2=NC2=NC(=N3)c3ccccc32)=N1` [Zn—PC], in data set [1], the λmax was 655.50 and 607.00; the “log ε” value is 4.5813 and 4.5391. The same molecule displayed an Fmax in data set [2] of 715. In data set [3], the g value was 1.9712 and 2.0245.
With “Zinc Phthalocyanine Tetracarboxylic Acid [Zn—PC tetracarboxylic acid]”, the λmax in data set [1] was 690.50 and 772.50. In data set [2], the Fmax was 805. The g value in data set [3] was 2.0245 and 1.9713.
